System: 415267-285-R-J2-PDC complex spheroid viability
Test: Anticancer human tumor 415267-285-R-J2-PDC patient-derived breast carcinoma cell line growth inhibition [POLQ]
Settings: for IC50: curve of first compound; for viability, T/C: stronger effect = lower value
Method: Multicellular complex tumor spheroid response to Polymerase (POL) inhibitors (novobiocin, ART-558, RP6685) in combination with a variety of drugs and investigational agents in selected tumor cell lines
The POL inhibitors (novobiocin, ART-558, and RP6685) were evaluated both individually and in combination with standard of care and investigational anticancer small molecules within a complex spheroid model of solid tumors. . Complex spheroids include a stromal component modeled by human endothelial cells (HUVEC) and fibroblasts modeled by human mesenchymal stem cells (MSCs). The concentration ranges selected for each drug and investigational agent were based upon clinically achievable concentrations if the clinical Cmax of the agent was known.
Compounds. The drugs and investigational agents: novobiocin (NSC847541), ART-558 (NSC835418), RP-6685 (NSC848927), peposertib (NSC802822), ceralasertib (NSC780249), elimusertib (NSC800525), camonsertib (NSC841442), AZD-1390 (NSC803789), olaparib (NSC753686), talazoparib (NSC767125), rucaparib (NSC756644), sotorasib (NSC818433), MRTX-1133 (NSC836407), SN-38 (NSC673596), topotecan (NSC609699), epotoside (NSC141540), doxorubicin (NSC123127), gemcitabine (NSC613327), 5-fluorouracil (NSC19893), paclitaxel (NSC125973), vemurafenib (NSC761431), MSA-2 (NSC828583), SN-011 (NSC837082), adavosertib (NSC754352), prexasertib (NSC758257), carboplatin (NSC241240) and oxaliplatin (NSC266046), were obtained from the National Cancer Institute (NCI) Developmental Therapeutics Program Chemical Repository (21). The FDA-approved anticancer drug set is available from the Developmental Therapeutics Program at https://dtp.cancer.gov/organization/dscb/obtaining/. […] The stock solutions were prepared in dimethyl sulfoxide (DMSO, Sigma-Aldrich, St. Louis, MO, cat. D2650), except for the platinum compounds which were prepared in saline (Quality Biological, Gaithersburg, MD, cat. 114-055-101), at 800-fold the tested concentration and stored at -70 degrees C prior to their use. All drugs and investigational agents were tested over a range starting from a high concentration at or near the clinical Cmax and decreasing in half-log increments. If the clinical Cmax for an agent had not been determined, the highest concentration tested was 10 microM, except for SN-38, which was tested at a high concentration of 1 microM.
Cell Culture. All cells were maintained in an incubator at 37 degrees C and 5% CO2 with 95% humidity. The PDC lines were cultured according to standard operating procedures established by the NCI PDMR (https://pdmr.cancer.gov). Table 3 of the manuscript, lists the cell lines along with the number of the three cell types plated to form the mct-spheroids and media for tumor cell growth. After thawing, all PDC lines, except 997537-175-T-J1-PDC and 415267-285-R-J2-PDC, were cultured in Matrigel-coated flasks prepared with a working solution of 1X Ham's F-12 nutrient mix, without supplementation (Thermo Fisher Scientific, cat. 11765054), 100 U/mL penicillin-streptomycin (Thermo Fisher Scientific, cat. 15140122), and 2.5% Matrigel (Corning Inc., Corning, NY, cat. 354248) for the first three passages. The two PDC lines 997537-175-T-J1-PDC and 415267-285-R-J2-PDC were cultured on uncoated flasks. The 857933-349-R-J2-PDC line was cultured in 6C/Colon 1B media containing advanced DMEM/F-12 (Thermo Fisher Scientific, cat. 12634028), 10 mM HEPES (Thermo Fisher Scientific, cat. 15630080), 1X GlutaMAX supplement (Thermo Fisher Scientific, cat. 35050061), 0.1 mg/mL primocin (InvivoGen, San Diego, CA, cat. ant-pm-2), 10% defined fetal bovine serum, heat inactivated (HyClone Laboratories Inc., Logan, UT, cat. SH30070.03HI), 50% L-WRN conditioned media (ATCC, cat. CRL-3276), 1.25 mM N-Acetyl-L-cysteine (Sigma-Aldrich, cat. A9165), 10 mM nicotinamide (Sigma-Aldrich, cat. N0636), 1X B-27 supplement (Thermo Fisher Scientific, cat. 17504044), 1X N-2 supplement (Thermo Fisher Scientific, cat. […]

[1] = second compound 0.0316 µM, first compound 0.0316 µM
[2] = second compound 0.0316 µM, first compound 0.1 µM
[3] = second compound 0.0316 µM, first compound 0.316 µM
[4] = second compound 0.0316 µM, first compound 1 µM
[5] = second compound 0.0316 µM, first compound 3.16 µM
[6] = second compound 0.0316 µM, first compound 10 µM
[7] = second compound 0.1 µM, first compound 0.0316 µM
[8] = second compound 0.1 µM, first compound 0.1 µM
[9] = second compound 0.1 µM, first compound 0.316 µM
[10] = second compound 0.1 µM, first compound 1 µM
[11] = second compound 0.1 µM, first compound 3.16 µM
[12] = second compound 0.1 µM, first compound 10 µM
[13] = second compound 0.316 µM, first compound 0.0316 µM
[14] = second compound 0.316 µM, first compound 0.1 µM
[15] = second compound 0.316 µM, first compound 0.316 µM
[16] = second compound 0.316 µM, first compound 1 µM
[17] = second compound 0.316 µM, first compound 3.16 µM
[18] = second compound 0.316 µM, first compound 10 µM
[19] = second compound 1 µM, first compound 0.0316 µM
[20] = second compound 1 µM, first compound 0.1 µM
[21] = second compound 1 µM, first compound 0.316 µM
[22] = second compound 1 µM, first compound 1 µM
[23] = second compound 1 µM, first compound 3.16 µM
[24] = second compound 1 µM, first compound 10 µM
[25] = second compound 3.16 µM, first compound 0.0316 µM
[26] = second compound 3.16 µM, first compound 0.1 µM
[27] = second compound 3.16 µM, first compound 0.316 µM
[28] = second compound 3.16 µM, first compound 1 µM
[29] = second compound 3.16 µM, first compound 3.16 µM
[30] = second compound 3.16 µM, first compound 10 µM
[31] = second compound 10 µM, first compound 0.0316 µM
[32] = second compound 10 µM, first compound 0.1 µM
[33] = second compound 10 µM, first compound 0.316 µM
[34] = second compound 10 µM, first compound 1 µM
[35] = second compound 10 µM, first compound 3.16 µM
[36] = second compound 10 µM, first compound 10 µM
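Note: spheroids exposed to compounds for one week before readout.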
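Throughout, for viability, T/C: luminescence used as stand-in measure of viable cells; 100% = DMSO vehicle control viability.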

COc1cccc2c1C(=O)c1c(O)c3c(c(O)c1C2=O)CC(O)(C(=O)CO)CC3OC1CC(N)C(O)C(C)O1 (stereo unspecified) + Nc1ccc(C#CCN(C(=O)Cc2ncc(C(F)(F)F)cc2C(F)(F)F)c2ccc(F)cc2)nn1
IC50 (second compound 0.0316 µM): 0.0557 µM | IC50 (second compound 0.1 µM): 0.0546 µM | IC50 (second compound 0.316 µM): 0.0579 µM | IC50 (second compound 1 µM): 0.05 µM | IC50 (second compound 3.16 µM): 0.0495 µM | IC50 (second compound 10 µM): < 0.0316 µM | viability, T/C [1]: 81.1% | viability, T/C [2]: 18% | viability, T/C [3]: 4.33% | viability, T/C [4]: 0.75% | viability, T/C [5]: 1.29% | viability, T/C [6]: 3.55% | viability, T/C [7]: 80.9% | viability, T/C [8]: 15.8% | viability, T/C [9]: 3.25% | viability, T/C [10]: 0.65% | viability, T/C [11]: 0.93% | viability, T/C [12]: 3.6% | viability, T/C [13]: 80.6% | viability, T/C [14]: 22.5% | viability, T/C [15]: 3.28% | viability, T/C [16]: 0.8% | viability, T/C [17]: 1.04% | viability, T/C [18]: 3.39% | viability, T/C [19]: 76.9% | viability, T/C [20]: 9.51% | viability, T/C [21]: 3.66% | viability, T/C [22]: 0.83% | viability, T/C [23]: 1.07% | viability, T/C [24]: 4.04% | viability, T/C [25]: 73.7% | viability, T/C [26]: 13% | viability, T/C [27]: 4.28% | viability, T/C [28]: 1.36% | viability, T/C [29]: 1.16% | viability, T/C [30]: 3.92% | viability, T/C [31]: 49.4% | viability, T/C [32]: 9.57% | viability, T/C [33]: 4.23% | viability, T/C [34]: 1.37% | viability, T/C [35]: 1.54% | viability, T/C [36]: 4.35%

O=C(c1cc(Cc2n[nH]c(=O)c3ccccc23)ccc1F)N1CCN(C(=O)C2CC2)CC1 + Nc1ccc(C#CCN(C(=O)Cc2ncc(C(F)(F)F)cc2C(F)(F)F)c2ccc(F)cc2)nn1
IC50 (second compound 0.0316 µM): > 10 µM | IC50 (second compound 0.1 µM): > 10 µM | IC50 (second compound 0.316 µM): > 10 µM | IC50 (second compound 1 µM): > 10 µM | IC50 (second compound 3.16 µM): > 10 µM | IC50 (second compound 10 µM): > 10 µM | viability, T/C [1]: 100% | viability, T/C [2]: 106% | viability, T/C [3]: 106% | viability, T/C [4]: 97.5% | viability, T/C [5]: 96% | viability, T/C [6]: 99% | viability, T/C [7]: 98.4% | viability, T/C [8]: 103% | viability, T/C [9]: 109% | viability, T/C [10]: 97.2% | viability, T/C [11]: 108% | viability, T/C [12]: 90.8% | viability, T/C [13]: 106% | viability, T/C [14]: 115% | viability, T/C [15]: 101% | viability, T/C [16]: 114% | viability, T/C [17]: 101% | viability, T/C [18]: 105% | viability, T/C [19]: 108% | viability, T/C [20]: 109% | viability, T/C [21]: 108% | viability, T/C [22]: 98.5% | viability, T/C [23]: 110% | viability, T/C [24]: 108% | viability, T/C [25]: 101% | viability, T/C [26]: 101% | viability, T/C [27]: 100% | viability, T/C [28]: 101% | viability, T/C [29]: 105% | viability, T/C [30]: 115% | viability, T/C [31]: 98.9% | viability, T/C [32]: 96.9% | viability, T/C [33]: 113% | viability, T/C [34]: 107% | viability, T/C [35]: 97.8% | viability, T/C [36]: 102%

CNCc1ccc(-c2[nH]c3cc(F)cc4c3c2CCNC4=O)cc1 + Cc1cccc(N(C)C(=O)C2C(O)CCN2c2nc(C)cc(C(F)(F)F)c2C#N)c1
IC50 (second compound 0.0316 µM): > 10 µM | IC50 (second compound 0.1 µM): > 10 µM | IC50 (second compound 0.316 µM): > 10 µM | IC50 (second compound 1 µM): > 10 µM | IC50 (second compound 3.16 µM): > 10 µM | IC50 (second compound 10 µM): > 10 µM | viability, T/C [1]: 94.8% | viability, T/C [2]: 97.2% | viability, T/C [3]: 106% | viability, T/C [4]: 116% | viability, T/C [5]: 94.5% | viability, T/C [6]: 110% | viability, T/C [7]: 99.8% | viability, T/C [8]: 86.7% | viability, T/C [9]: 102% | viability, T/C [10]: 96.3% | viability, T/C [11]: 105% | viability, T/C [12]: 105% | viability, T/C [13]: 97.5% | viability, T/C [14]: 103% | viability, T/C [15]: 101% | viability, T/C [16]: 101% | viability, T/C [17]: 102% | viability, T/C [18]: 99.6% | viability, T/C [19]: 97.8% | viability, T/C [20]: 96.3% | viability, T/C [21]: 93.7% | viability, T/C [22]: 100% | viability, T/C [23]: 104% | viability, T/C [24]: 84.3% | viability, T/C [25]: 94% | viability, T/C [26]: 100% | viability, T/C [27]: 100% | viability, T/C [28]: 98% | viability, T/C [29]: 97.8% | viability, T/C [30]: 94.6% | viability, T/C [31]: 98.4% | viability, T/C [32]: 90.2% | viability, T/C [33]: 96.3% | viability, T/C [34]: 95.1% | viability, T/C [35]: 96.9% | viability, T/C [36]: 88.9%

— PubChem BioAssay AID1963847 (Molecular Pharmacology Branch, DTP, NCI, 2024)
